Here are results for 16 molecules from US4179467A, “Dopamine hydroxylase inhibiting 2-amino-cyclopent-1-ene-1-thiocarboxylic acid-disulfides” (Richter Gedeon Vegyeszeti Gyar Rt., priority 1976, dated 1979).

The test system of data set [1] is dopamine-β-hydroxylase. The note with it: literature, cited from earlier work; for dopamine-β-hydroxylase inhibiting effects, in words / duration of dopamine-β-hydroxylase inhibiting effect, in words: known compounds.
The test system of data set [2] is dopamine-β-hydroxylase. The experiment in a line: Noradrenaline and dopamine levels of the cerebrum (brain) in rats, % of controls. Format: in vivo, male Wistar rats. The note with it: rat, i.p., 400 mg/kg, time not given. The method, then: The dopamine-β-hydroxylase inhibiting effects of the new compounds according to the invention were examined by the following tests:
(§1) The tests were performed on male Wistar rats weighing 150 to 200 g. The dopamine-β-hydroxylase inhibiting effects of the compounds were evaluated by determining the change of noradrenaline, dopamine and adrenaline levels of the cerebrum, heart, spleen and adrenal gland. The serotonine and 5-hydroxy-indolylacetic acid levels of the cerebrum were also determined. The measurements were performed as follows:
(§2) The animals were decapitated, the cerebrum, heart, spleen and adrenal gland were removed quickly, and the organs were frozen by placing them on a metal sheet cooled with dry ice. The frozen organs were stored for a maximum of one night at -20° C.
The organs were weighed in the frozen state and then homogenized in 5.0 ml of 0.4 N perchloric acid containing 0.05% of EDTA-Naa and 0.1% of Na2 S2 O5. The homogenized mixtures were centrifuged as described above for the treatment of adrenal gland, the supernatants were decanted, and the pH was adjusted to 8.0±0.1 with a 0.1 molar tris buffer containing 20 g/l of NaOH and 25 g/l of EDTA-Na2. 100 mg of prepared Al2 O3 (Anton et al.: J. Pharm. Ther. 138, 360 (1962)) were added to the samples, and the mixtures were shaken mechanically for 20 minutes. Thereafter the Al2 O3 was washed with 2×10 ml of distilled water, and noradrenaline was eluted with 1.0 ml of 0.05 N perchloric acid. 0.5 ml samples of the eluate were used for the determination of noradrenaline. Noradrenaline was determined according to the method of Shellenberger et al. (Anal. Biochem. 39, 356 (1971)), with the following modifications of the basic procedure: 0.5 ml of 0.1 molar Na-K-phosphate buffer, containing 9 g/l of EDTA-Na2, were added to 0.5 ml of the eluate, and the catecholamines (noradrenaline in the examination of heart and spleen and noradrenaline and dopamine in the examination of the cerebrum) were oxidized with 0.1 ml of a 0.1 N iodine solution in 5% potassium iodide. After exactly 2 minutes, oxidation was stopped by adding 0.25 ml of a 2.5% sodium sulfite solution in 4.4 N aqueous sodium hydroxide to the mixture. 2 minutes after the introduction of the alkaline sulfite solution, 0.2 ml of concentrated acetic acid was added to the samples, whereupon the pH decreased to 4.4 to 4.5. Thereafter the samples were placed for 5 minutes in a drying oven heated to 100° C., and then the samples were cooled with ice water. The fluorescency of noradrenaline was measured with an OPTON spectrophotometer at wavelengths of 380 nm (excitation) and 490 nm (emission).
The brains were homogenized in 10 parts by volume of 0.4 N perchloric acid. The homogenized mixture was stored at -20° C. overnight; thereafter it was thawed and centrifuged as described above. A sample of the homogenized mixture corresponding to 0.5 g of brain was removed, the pH of the sample was adjusted to 8.0±0.1 with 0.1 molar tris-buffer of the above composition, and the sample was processed as described above for the determination of the noradrenaline content of heart and spleen, with the difference that 1.5 ml of 0.05 N perchloric acid was used as the eluting agent. 0.5 ml of the eluate was used to determine the noradrenaline and dopamine contents. The measurement was performed as described above, with the difference that samples of 0.5 ml were applied for the recording of the flourescence of noradrenaline. The residue was placed for 50 minutes into a drying oven heated to 100° C., thereafter the sample was cooled with ice water, and the fluorescence of dopamine was recorded at wavelengths of 325 nm (excitation) and 380 nm (emission).
In a further test series the serotonine and 5-hydroxy-indolylacetic acid contents were also determined, in addition to the determination of the noradrenaline and dopamine content, from the same sample. […]

A short description of data set [3]: in vivo. The settings on record: mouse, in vivo, mice.
The subject of data set [4] is serotonine and 5-hydroxy-indolylacetic acid levels of the cerebrum. Put plainly: Serotonine and 5-hydroxy-indolylacetic acid levels of the cerebrum (brain) in rats, % of controls. The settings on record: rat; for response vs control in vivo at 500 mg/kg: po, p.o. Format: in vivo, male Wistar rats. The method, then:
as §1, §2
In a further test series the serotonine and 5-hydroxy-indolylacetic acid contents were also determined, in addition to the determination of the noradrenaline and dopamine content, from the same sample. In this instance the brains were homogenized in 10 ml of 75% ethanol, 0.2 ml of EDTA-Na2 and 5% of ascorbic acid were added to the homogenized mixtures, and the homogenized mixtures were maintained at -20° C. overnight. The mixtures were centrifuged as described above, and 5.0 ml samples of the supernatant were removed. The samples were diluted with equal volumes of distilled water, and poured onto ion exchange columns of 0.5×1.5 cm dimensions, filled with buffered Amberlite CG-30 (200 to 400 mesh). The columns were washed with 5 ml of distilled water followed by 1.0 ml of 0.2 N hydrochloric acid, and the first effluent and the aqueous wash were collected for the determination of 5-hydroxy-indolylacetic acid. Elution was continued with a further 1.2 ml quantity of 0.2 N hydrochloric acid in order to remove noradrenaline, dopamine and serotonine. Samples of 0.3 ml were used for the determinations.
Noradrenaline and dopamine were determined by the method of Shellenberger, modified as described above, whereas serotonine was determined by the method of Curzon et al. (Brit. J. Pharmacol. 39, 653 (1970)). The basic method was modified as follows: A 0.5% solution of ortho-phthal(di)aldehyde in absolute ethanol was diluted with […] hydrochloric acid to 50-fold of its original volume, and 0.6 ml of the resulting 0.01% ortho-phthal(di)aldehyde solution were added immediately to 0.5 ml of the serotonine-containing sample. The sample was placed in a hot water bath for 10 minutes, thereafter cooled with tap water, and the flourescence was recorded at wavelengths of 360 nm (excitation) and 490 nm (emission).
5-Hydroxy-indolylacetic acid was determined from the mixture of the first effluent and the aqueous wash. 10 ml of distilled water and 0.2 ml of concentrated hydrochloric acid were added to the mixture, and the sample was poured onto a 0.8×4.0 cm column filled with Sephadex G-10. The column was washed with 15 ml of 0.1 N hydrochloric acid followed by 1.8 to 2.0 ml of 0.02 N aqueous ammonia, and then 5-hydroxy-indolylacetic acid was eluted with further 2.0 ml of the aqueous ammonia. 0.5 ml samples were used in the measurements, and the determination was performed according to the method of Korf et al. (Biochem. Pharmacol. 20, 659 (1971)).
In the tests disulfiram, 2,2-dipyridyl, bis(1-methyl-4-homopiperazinyl-thiocarbonyl)-disulfide, sodium diethyldithiocarbamate and N-phenyl-N'-(2-thiazolyl)-thiourea were used as reference substances. The values indicated in Table 1 are the percentages in relation to the amine levels of the controls measured in the same tests (±standard error). The statistical calculations were performed on a TPA/i type computer, using Student's t test.

The mark [5] stands for this setting: ip, i.p., 4 hours, read-out: Brain 5-HIAA level (percentages in relation to the controls).
Where [6] appears, read: ip, i.p., 4 hours, read-out: Brain SE level (percentages in relation to the controls).
[7] abbreviates: ip, i.p., 8 hours, read-out: Brain 5-HIAA level (percentages in relation to the controls).
The mark [8] stands for this setting: ip, i.p., 8 hours, read-out: Brain SE level (percentages in relation to the controls).

Where two headings read alike, the source gives them in different places. Where only a bound is given, the exact number is not on record here.

For the molecule `NOCc1ccccc1` [Benzyloxyamine], in data set [1], the “dopamine-β-hydroxylase inhibiting effects, in words” value was “exert dopamine-β-hydroxylase inhibiting effects” and the “duration of dopamine-β-hydroxylase inhibiting effect, in words” value is “only active for a short period”.
On to `CCN(CC)C(=S)[S-].[Na+]` [DDC-Na, sodium diethyldithiocarbamate], for which, in data set [2], the “Brain DA level (percentages in relation to the controls)” value is 120% and the “Brain NA level (percentages in relation to the controls)” value is listed as 64.1%.
In the case of `CN1CCCN(C(=S)SSC(=S)N2CCCN(C)CC2)CC1` [FLA-63, bis(1-methyl-4-homopiperazinyl)-thiocarbonyl-disulfide], the “dopamine-β-hydroxylase inhibition in vivo, in words” value in data set [1] (in vivo conditions) is listed as “one of the most potent dopamine-β-hydroxylase inhibitors under in vivo conditions”. Besides, the median lethal dose (LD50) – broadly, the dose at which mortality reaches 50% – in data set [3] (ip) amounted to 150 mg/kg. The response vs control in vivo at 50 mg/kg stood at 134% in data set [4] (setting [5]) and 124% in data set [4] (setting [6]).
With `CCCCc1ccc(C(=O)O)nc1` [Fusaric acid, 5-butyl-picolinic acid], in data set [1], the “dopamine-β-hydroxylase inhibiting effects, in words” value is “strong dopamine-β-hydroxylase inhibiting effects”. In data set [3] (po), this molecule had a median lethal dose (LD50) of 230 ± 25 mg/kg.
With `NNc1nncc2ccccc12` [Hydralazine], the “dopamine-β-hydroxylase inhibiting effects, in words” value in data set [1] is “possess dopamine-β-hydroxylase inhibiting effects”. The median lethal dose (LD50) in data set [3] (ip) amounted to 83 mg/kg.
In the case of `NC1=C(C(=S)SSC(=S)C2=C(N)CCC2)CCC1` [M-1], the LD50 in data set [3] (ip) was roughly 800 mg/kg. Besides, the response vs control in vivo at 200 mg/kg in data set [4] (setting [5]) came to 152%; in data set [4] (setting [6]), 115 ± 4.7%; in data set [4] (setting [7]) it was 125 ± 10.7%; in data set [4] (setting [8]), 111 ± 5.1%.
Regarding `CCCCNC1=C(C(=S)SSC(=S)C2=C(NCCCC)CCC2)CCC1` [M-2, 2-(N-butyl)-amino-cyclopent-1-ene-thiocarboxylic acid-disulfide], the values for the response vs control in vivo at 200 mg/kg in data set [4] (setting [6]) and in data set [4] (setting [8]) were 97.6% and 97.3 ± 11.3%, respectively.
As for `S=C(SSC(=S)C1=C(NC2CCCCC2)CCC1)C1=C(NC2CCCCC2)CCC1` [M-5, 2-(N-cyclohexyl)-amino-cyclopent-1-ene-thiocarboxylic acid disulfide], in data set [3] (ip), the LD50 was greater than 1000 mg/kg. Also, the response vs control in vivo at 200 mg/kg turned out to be 143 ± 8% in data set [4] (setting [5]), 104 ± 7.6% in data set [4] (setting [6]), 178 ± 10.8% in data set [4] (setting [7]) and 105 ± 4.5% in data set [4] (setting [8]).
On to `CCNC1=C(C(=S)SSC(=S)C2=C(NCC)CCC2)CCC1` [M-6, 2-(N-ethyl)-amino-cyclopent-1-ene-thiocarboxylic acid-disulfide], for which the LD50 in data set [3] (ip) fell in the range of 1000 to 1500 mg/kg. For the same molecule, in data set [4] (ip, i.p., 100 mg/kg, 4 hours, read-out: Brain SE level (percentages in relation to the controls)), the response vs control in vivo at 100 mg/kg is 107 ± 2.2%. The response vs control in vivo at 200 mg/kg in data set [4] (setting [5]) was determined as 155 ± 8.5%; in data set [4] (setting [6]), 112 ± 5.2%; in data set [4] (setting [7]) it was 195 ± 4.8%; in data set [4] (setting [8]), 104 ± 7.4%. The response vs control in vivo at 500 mg/kg in data set [4] (4 hours, read-out: Brain SE level (percentages in relation to the controls)) came to 118 ± 4.6%; in data set [4] (8 hours, read-out: Brain SE level (percentages in relation to the controls)) it was 91.2 ± 0.9%.
In the case of `C=CCNC1=C(C(=S)SSC(=S)C2=C(NCC=C)CCC2)CCC1` [M-7, 2-(N-allyl)-amino-cyclopent-1-ene-thiocarboxylic acid-disulfide], in data set [3] (ip), the LD50 is greater than 1000 mg/kg. For the same molecule, the response vs control in vivo at 200 mg/kg was 117 ± 6.5% in data set [4] (setting [5]), 113 ± 8% in data set [4] (setting [6]), 126 ± 10.5% in data set [4] (setting [7]) and 108% in data set [4] (setting [8]).
`O=C(CO)c1coc(=O)c2c(O)cccc12` [Oosponol]: the “dopamine-β-hydroxylase inhibiting effects, in words” value in data set [1] is reported as “strong dopamine-β-hydroxylase inhibiting effects”. Besides, the LD50 in data set [3] (ip) was 40 mg/kg; in data set [3] (po), 280 mg/kg.
On to `CC(N)Cc1ccccc1` (stereo not shown) [amphetamine], for which the “dopamine-β-hydroxylase inhibiting effects, in words” value in data set [1] is listed as “possess dopamine-β-hydroxylase inhibiting effects”.
Turning to `NNCc1ccccc1` [benzylhydrazine], in data set [1], the “dopamine-β-hydroxylase inhibiting effects, in words” value is “exert dopamine-β-hydroxylase inhibiting effects” and the “duration of dopamine-β-hydroxylase inhibiting effect, in words” value was “only active for a short period”.
Take `CCN(CC)C(=S)S` [diethyl dithiocarbamate]: in data set [1], the “dopamine-β-hydroxylase inhibiting effects, in words” value is “strong dopamine-β-hydroxylase inhibiting effects”.
Take `Cn1cc[nH]c1=S` [methimazol]: in data set [1], the “dopamine-β-hydroxylase inhibiting effects, in words” value is recorded as “possess dopamine-β-hydroxylase inhibiting effects”.
For the molecule Dopastine, the “dopamine-β-hydroxylase inhibiting effects, in words” value in data set [1] is given as “strong dopamine-β-hydroxylase inhibiting effects”.
